From patent publication US20120164756A1, “ASPIRIN ASSAY” (RANDOX LABORATORIES LIMITED, priority 2009, published 2012)

Experiments:
[1] = tested on: antibodies raised from SUA-BTG; assay: Biochip-based competitive immunoassay (salicyluric acid dose-response curve and cross-reactivity profile); assay type: binding, sheep; details: Concentration 350 μg/ml
Method: In order to generate polyclonal antisera, the immunogen (prepared in Example 2) was mixed with primary complete Freund's Adjuvant (Sigma) and injected into a host sheep to provide target-specific polyclonal antisera. On a monthly basis the immunogen (with incomplete Freund's Adjuvant) was injected into the sheep. The host animal was bled to yield a suitable volume of specific antiserum. IgG was then extracted from the antisera via Caprylic acid/ammonium sulphate precipitation of immunoglobulin.
Nine calibrator solutions of salicyluric acid (0-5.00 μg/ml) were prepared in calibrator buffer for standard curves. Cross-reactants (aspirin, 4-aminosalcylic acid, benzoic acid, diflusinal, gentisic acid, gentisuric acid, ibuprofen, methyl salicylate, salicylic acid and salsalate) were diluted in calibrator buffer (0-350 μg/ml). Assay diluent (155 μl), sample/antigen (25 μl), and diluted conjugate (Hapten 1-HRP 120 μl) were added to biochips wells. Biochips were incubated for 30 min at 30° C. in a thermoshaker at 370 rpm, and then washed with TBST buffer (2 quick washes followed by 4 washes with 2 min intervals). Biochips were developed with 250 μl luminol plus: peroxide (1:1) for 2 min in the dark, and were then imaged on the Randox Investigator (2×60 sec images).

[2] = cited from earlier work
[3] = cited from earlier work; for share of excreted product: excretion after aspirin ingestion; for kinetics of formation: hepatic metabolism of salicylic acid
[4] = after ingestion of a therapeutic amount of aspirin

Structure (SMILES) | % Cross-reactivity [1] | share of excreted product [3] | kinetics of formation [3] | other results
Nc1ccc(C(=O)O)c(O)c1 [4-aminosalicylic acid] | <<1.00% |  |  | 
CC(=O)Oc1ccccc1C(=O)O [Aspirin, 2-acetoxybenzoic acid] | <<1.00% |  |  | moderately toxic concentration (MTC), aspirin equivalent ([2]; Chyka et al (2007)): 6.5 g; toxic concentration, aspirin ingestion ([2]; general literature): > 300 mg/kg; concentrations considered to be toxic ([2]; serum): exceeding 300 mg/l; therapeutic concentration range in serum ([2]; serum): 150 to 300 mg/L; time until only trace levels remain [3, 4]: ≤ 2 h
O=C(O)c1ccccc1 [Benzoic acid] | <<1.00% |  |  | 
O=C(O)c1cc(-c2ccc(F)cc2F)ccc1O [Diflusinal] | <<1.00% |  |  | 
O=C(O)c1cc(O)ccc1O [Gentisic acid] | <<1.00% | approximately 1% | first-order kinetics | 
O=C(O)CNC(=O)c1cc(O)ccc1O [Gentisuric acid] | <<1.00% |  |  | 
O=C(O)CNC(=O)c1ccccc1 [Hippuric acid] | <<1.00% |  |  | 
CC(C)Cc1ccc(C(C)C(=O)O)cc1 (stereo not drawn) [Ibuprofen] | <<1.00% |  |  | 
COC(=O)c1ccccc1O [Methyl salicylate] | <<1.00% |  |  | 
O=C(O)c1ccccc1O [Salicylic acid, salicylic acid] | <<1.00% | approximately 10% |  | therapeutic level in blood ([2]; blood of a healthy adult): 150 to 300 mg/L; time of peak levels [3, 4]: 1 to 2 h; half-life ([3]; in serum): approximately 6 hours
O=C(O)CNC(=O)c1ccccc1O [Salicyluric acid, salicyluric acid] |  | approximately 75% | Michaelis-Menten or zero-order kinetics | 
O=C(O[C@@H]1O[C@H](C(=O)O)[C@@H](O)[C@H](O)[C@H]1O)c1ccccc1O [salicylacyl glucuronide] |  | approximately 5% | first-order kinetics | 
O=C(O)c1ccccc1O[C@@H]1O[C@H](C(=O)O)[C@@H](O)[C@H](O)[C@H]1O [salicylphenolic glucuronide] |  | approximately 8% | Michaelis-Menten or zero-order kinetics | 
